According to patent publication US9272990B2, “Lysophosphatidic acid receptor antagonists and their use in the treatment fibrosis” (AMIRA PHARMACEUTICALS, INC., priority 2010, dated 2016):

Biological target: T1, Human LPA1 (Homo sapiens, UniProt Q92633)
T1 construct: the full-length cDNA for human LPA1 was obtained by PCR of the reverse transcription reaction; expressed in transfected cells
Test: LPA1 calcium flux assay
Format: cell-based
Conditions: CHO cells expressing human LPA1, stimulated with 10 nM LPA; read-out: LPA1 Ca^2+ flux
Procedure: A 1.1 kb cDNA encoding the human LPA1 receptor was cloned from human lung. Human lung RNA (Clontech Laboratories, Inc. USA) was reverse transcribed using the RETROSCRIPT® kit (Ambion, Inc.) and the full-length cDNA for human LPA1 was obtained by PCR of the reverse transcription reaction. The nucleotide sequence of the cloned human LPA1 was determined by sequencing and confirmed to be identical to the published human LPA1 sequence (An et al., Biochem. Biophys. Res. Commun. 231:619 (1997). The cDNA was cloned into the pcDNA5/FRT expression plasmid and transfected in CHO cells using Lipofectamine 2000 (Invitrogen Corp., USA). Clones stably expressing human LPA1 were selected using hygromycin and identified as cells that show Ca-influx in response to LPA.
Human LPA1 or LPA3 expressing CHO cells are seeded at 20,000-45,000 cells per well in a 96-well poly-D-lysine coated plate one or two days before the assay. Prior to the assay, the cells are washed once with PBS and then cultured in serum-free media overnight. On the day of the assay, a calcium indicator dye (Calcium 4, Molecular Devices) in assay buffer (HBSS with Ca^2+ and Mg^2+ and containing 20 mM Hepes and 0.3% fatty-acid free human serum albumin) is added to each well and incubation continued for 1 hour at 37° C. 10 μl of test compounds in 2.5% DMSO are added to the cells and incubation continued at room temperature for 30 minutes. Cells are the stimulated by the addition of 10 nM LPA and intracellular Ca^2+ measured using the FLEXSTATION® 3 (Molecular Devices). IC50s are determined using Graphpad prism analysis of drug titration curves.

T1 sequence (Q92633 whole entry): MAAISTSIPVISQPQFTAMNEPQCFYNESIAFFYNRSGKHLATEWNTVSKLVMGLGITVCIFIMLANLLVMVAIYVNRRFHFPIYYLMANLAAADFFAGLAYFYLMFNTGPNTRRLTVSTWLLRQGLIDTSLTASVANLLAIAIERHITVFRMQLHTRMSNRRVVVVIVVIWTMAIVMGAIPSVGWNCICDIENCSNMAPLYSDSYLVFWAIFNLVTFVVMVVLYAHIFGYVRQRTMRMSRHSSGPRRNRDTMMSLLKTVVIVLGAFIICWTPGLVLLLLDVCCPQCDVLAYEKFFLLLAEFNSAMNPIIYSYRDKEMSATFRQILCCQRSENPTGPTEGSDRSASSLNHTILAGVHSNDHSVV

Compound: O=C(O)CC1(c2ccc(-c3ccc(-c4ccncc4C(O)CCCc4ccccc4)cc3)cc2)CC1 (centres unmarked) [Compound 1-8, (1-{4′-[3-(1-hydroxy-4-phenyl-butyl)-pyridin-4-yl]-biphenyl-4-yl}-cyclopropyl)-acetic acid]
- IC50: 300 to 1000 nM

Compound: CCn1ncc(-c2ccc(-c3ccc(C4(C(=O)O)CC4)cc3)cc2)c1C(O)CCCc1ccccc1 (centres unmarked) [Compound 1-23, 1-{4′-[1-ethyl-5-(1-hydroxy-4-phenyl-butyl)-1H-pyrazol-4-yl]-biphenyl-4-yl}-cyclopropanecarboxylic acid]
- IC50: < 300 nM

Compound: O=C(O)CC1(c2ccc(-c3ccc(-c4ccsc4C(O)CCCc4ccccc4)cc3)cc2)CC1 (centres unmarked) [Compound 1-13, (1-{4′-[2-(1-hydroxy-4-phenyl-butyl)-thiophen-3-yl]-biphenyl-4-yl}-cyclopropyl)-acetic acid]
- IC50: < 300 nM

Compound: Cn1ncc(-c2ccc(-c3ccc(C4(CC(=O)O)CC4)cc3)cc2)c1C(O)CCCc1ccccc1 (centres unmarked) [Compound 1-10, (1-{4′-[5-(1-hydroxy-4-phenyl-butyl)-1-methyl-1H-pyrazol-4-yl]-biphenyl-4-yl}-cyclopropyl)-acetic acid]
- IC50: < 300 nM

Compound: C[C@@H](OC(=O)Nc1ncoc1-c1ccc(-c2ccc(C3(C(=O)O)CC3)cc2)cc1)c1ccccc1 [Compound 1-4, 1-{4′-[4-((R)-1-phenyl-ethoxycarbonylamino)-oxazol-5-yl]-biphenyl-4-yl}-cyclopropanecarboxylic acid]
- IC50: < 300 nM

Compound: O=C(O)CC1(c2ccc(-c3ccc(-c4ncccc4C(O)CCCc4ccccc4)cc3)cc2)CC1 (centres unmarked) [Compound 1-12, (1-{4′-[3-(1-hydroxy-4-phenyl-butyl)-pyridin-2-yl]-biphenyl-4-yl}-cyclopropyl)-acetic acid]
- IC50: < 300 nM

Compound: Cn1ncc(-c2ccc(-c3ccc(C4(C(=O)O)CC4)cc3)cc2)c1C(O)c1cn(Cc2ccccc2)nn1 (centres unmarked) [Compound 1-22, 1-(4′-{5-[(1-benzyl-1H-[1,2,3]triazol-4-yl)-hydroxy-methyl]-1-methyl-1H-pyrazol-4-yl}-biphenyl-4-yl)-cyclopropanecarboxylic acid]
- IC50: < 300 nM

Compound: CCn1ncc(-c2ccc(-c3ccc(C4(CC(=O)O)CC4)cc3)cc2)c1C(O)CCCc1ccccc1 (centres unmarked) [Compound 1-24, (1-{4′-[1-ethyl-5-(1-hydroxy-4-phenyl-butyl)-1H-pyrazol-4-yl]-biphenyl-4-yl}-cyclopropyl)-acetic acid]
- IC50: < 300 nM

Compound: CC(CCc1ccc(Cl)cc1)Nc1c(-c2ccc(-c3ccc(C4(C(=O)O)CC4)cc3)cc2)cnn1C (centres unmarked) [Compound 1-21, 1-(4′-{5-[3-(4-chloro-phenyl)-1-methyl-propylamino]-1-methyl-1H-pyrazol-4-yl}-biphenyl-4-yl)-cyclopropanecarboxylic acid]
- IC50: < 300 nM

Compound: O=C(O)C1(c2ccc(-c3ccc(-c4ncccc4C(O)CCCc4ccccc4)cc3)cc2)CC1 (centres unmarked) [Compound 1-5, 1-{4′-[3-(1-hydroxy-4-phenyl-butyl)-pyridin-2-yl]-biphenyl-4-yl}-cyclopropanecarboxylic acid]
- IC50: < 300 nM

Compound: O=C(O)C1(c2ccc(-c3ccc(-c4ccncc4C(O)CCCc4ccccc4)cc3)cc2)CC1 (centres unmarked) [Compound 1-9, 1-{4′-[3-(1-Hydroxy-4-phenyl-butyl)-pyridin-4-yl]-biphenyl-4-yl}-cyclopropanecarboxylic acid]
- IC50: < 300 nM

Compound: O=C(O)C1(c2ccc(-c3ccc(-c4ncc5ccccc5c4C(O)CCCc4ccccc4)cc3)cc2)CC1 (centres unmarked) [Compound 1-16, 1-{4′-[4-(1-hydroxy-4-phenyl-butyl)-isoquinolin-3-yl]-biphenyl-4-yl}-cyclopropanecarboxylic acid]
- IC50: 1000 to 10000 nM

Compound: O=C(O)CC1(c2ccc(-c3ccc(-c4sccc4C(O)CCCc4ccccc4)cc3)cc2)CC1 (centres unmarked) [Compound 1-19, (1-{4′-[3-(1-hydroxy-4-phenyl-butyl)-thiophen-2-yl]-biphenyl-4-yl}-cyclopropyl)-acetic acid]
- IC50: < 300 nM

Compound: O=C(O)C1(c2ccc(-c3ccc(-c4sccc4C(O)CCCc4ccccc4)cc3)cc2)CC1 (single isomer, unassigned) [Compound 1-27, 1-{4′-[3-(1-hydroxy-4-phenyl-butyl)-thiophen-2-yl]-biphenyl-4-yl}-cyclopropanecarboxylic acid]
- IC50: < 300 nM

Compound: O=C(O)C1(c2ccc(-c3ccc(-c4cscc4C(O)CCCc4ccccc4)cc3)cc2)CC1 (centres unmarked) [Compound 1-15, 1-{4′-[4-(1-hydroxy-4-phenyl-butyl)-thiophen-3-yl]-biphenyl-4-yl}-cyclopropanecarboxylic acid]
- IC50: < 300 nM

Compound: O=C(O)C1(c2ccc(-c3ccc(-c4cnccc4C(O)CCCc4ccccc4)cc3)cc2)CC1 (centres unmarked) [Compound 1-17, 1-{4′-[4-(1-hydroxy-4-phenyl-butyl)-pyridin-3-yl]-biphenyl-4-yl}-cyclopropanecarboxylic acid]
- IC50: < 300 nM

Compound: C[C@@H](OC(=O)Nc1ccccc1-c1ccc(-c2ccc(C3(C(=O)O)CC3)cc2)cc1)c1ccccc1 [Compound 1-2, 1-[2″-((R)-1-phenyl-ethoxycarbonylamino)-[1,1′;4′,1″]terphenyl-4-yl]-cyclopropanecarboxylic acid]
- IC50: < 300 nM

Compound: O=C(O)C1(c2ccc(-c3ccc(-c4sccc4C(O)CCCc4ccccc4)cc3)cc2)CC1 (single isomer, unassigned) [Compound 1-26, 1-{4′-[3-(1-hydroxy-4-phenyl-butyl)-thiophen-2-yl]-biphenyl-4-yl}-cyclopropanecarboxylic acid]
- IC50: < 300 nM

Compound: O=C(O)C1(c2ccc(-c3ccc(-c4ccsc4C(O)CCCc4ccccc4)cc3)cc2)CC1 (centres unmarked) [Compound 1-6, 1-{4′-[2-(1-hydroxy-4-phenyl-butyl)-thiophen-3-yl]-biphenyl-4-yl}-cyclopropanecarboxylic acid]
- IC50: < 300 nM

Compound: O=C(O)C1(c2ccc(-c3ccc(-c4ccccc4C(O)CCCc4ccccc4)cc3)cc2)CC1 (centres unmarked) [Compound 1-7, 1-[2-(1-hydroxy-4-phenyl-butyl)-[1,1′;4′,1″]terphenyl-4″-yl]-cyclopropanecarboxylic acid]
- IC50: < 300 nM

Compound: Cn1ncc(-c2ccc(-c3ccc(C4(C(=O)O)CC4)cc3)cc2)c1NCc1cnc(-c2ccccc2)s1 [Compound 1-25, 1-(4′-{1-methyl-5-[(2-phenyl-thiazol-5-ylmethyl)-amino]-1H-pyrazol-4-yl}-biphenyl-4-yl)-cyclopropanecarboxylic acid]
- IC50: 1000 to 10000 nM

Compound: C[C@@H](OC(=O)Nc1cnccc1-c1ccc(-c2ccc(C3(C(=O)O)CC3)cc2)cc1)c1ccccc1 [Compound 1-3, 1-{4′-[3-((R)-1-phenyl-ethoxycarbonylamino)-pyridin-4-yl]-biphenyl-4-yl}-cyclopropanecarboxylic acid]
- IC50: 300 to 1000 nM

Compound: O=C(O)CC1(c2ccc(-c3ccc(-c4cscc4C(O)CCCc4ccccc4)cc3)cc2)CC1 (centres unmarked) [Compound 1-14, (1-{4′-[4-(1-hydroxy-4-phenyl-butyl)-thiophen-3-yl]-biphenyl-4-yl}-cyclopropyl)-acetic acid]
- IC50: < 300 nM

Compound: Cn1ncc(-c2ccc(-c3ccc(C4(C(=O)O)CC4)cc3)cc2)c1Nc1cccc(-c2ccccc2)n1 [Compound 1-20, 1-{4′-[1-methyl-5-(6-phenyl-pyridin-2-ylamino)-1H-pyrazol-4-yl]-biphenyl-4-yl}-cyclopropanecarboxylic acid]
- IC50: < 300 nM

Compound: O=C(O)C1(c2ccc(-c3ccc(-c4sccc4C(O)CCCc4ccccc4)cc3)cc2)CC1 (centres unmarked) [Compound 1-18, 1-{4′-[3-(1-hydroxy-4-phenyl-butyl)-thiophen-2-yl]-biphenyl-4-yl}-cyclopropanecarboxylic acid]
- IC50: < 300 nM

Compound: Cn1ncc(-c2ccc(-c3ccc(C4(C(=O)O)CC4)cc3)cc2)c1C(O)CCCc1ccccc1 (centres unmarked) [Compound 1-11, 1-{4′-[5-(1-hydroxy-4-phenyl-butyl)-1-methyl-1H-pyrazol-4-yl]-biphenyl-4-yl}-cyclopropanecarboxylic acid]
- IC50: < 300 nM
